In US20230210984A1, “ADOPTIVE IMMUNOTHERAPY” (The Council of the Queensland Institute of Medical Research, priority 2019, published 2023):
Where two headings read alike, the source gives them in different places.

What was measured:
Format in all cases: cell-based
SNU719 cells = assay: MTS cell viability, inhibitor combined with EBV-specific T cells (Example 2); details: combination with EBV-specific T cells (25:1) vs individual treatment, 48 hrs; AZD6244 0.5 μM, trematinib 1.0 μM, JQ1 5.0 μM
Procedure: Cell viability assay was performed using the CellTiter 96® AQueous one cell viability assay reagent (Promega, WI, USA) for three biological replicates per EBV-associated cancer cell lines in triplicate. Briefly, the cancer cells (target cells) were plated at a density of 5000 cells per well in an overall media volume of 200 μL on a 96-well tissue-culture plate (BD Falcon™). The effector AdE1-LMPpoly transfected T cells were freshly thawed in RPMI-1640 with 10% FCS and 120 IU/mL of recombinant IL-2 at 37° C. and 50% CO2. Post 24 hrs of plating and incubation at 37° C. and 50% CO2, the effector T cells were mixed to the target cells at a gradient ratio of effector to target (E:T) of 5:1-100:1. The exact number of T cells (To) used per E:T ratio (ET) was independently used as control alongside PBS treated target cells (Es) and sole media (M0). After 24 hrs of incubation at 37° C. and 50% CO2, MTS was added to each well (1:100 dilution in media) and was incubated for 1 hour following which the plate was centrifuged at 1,200×g at room temperature for 5 min and absorbance of the mixture at an optical density of 490 nm was measured via a microplate reader. The relative cell viability was calculated using the following formula: […]

[1] = system: EBV-associated cell lines (nasopharyngeal and gastric cancer cell lines); assay: MTS cell viability assay, IC50 of inhibitors; details: for IC50: read-out: IC50 (~50% reduction in cell viability); for IC25 value (sub IC50 value): concentration chosen for in vitro combination treatment
Procedure: FIG. 9: Determining the IC50 value of MEK1/2 inhibitors. Representation of the cell viability performed using MTS assay after the indicated cell lines were incubated with 0.1 μM-5 μM of selumatinib (left panel) and trametinib (right panel) for 48 hours. The data are represented as the mean±SD from three independent experiments.
FIG. 14: Determining the IC50 value of JQ1 inhibitors. Representation of the cell viability performed using MTS assay after the indicated cell lines were incubated with 0.5 μM-10 μM of JQ1 for 48 hours. The data are represented as the mean±SD from three independent experiments.
Cell viability assay was performed using the CellTiter 96® AQueous one cell viability assay reagent (Promega, WI, USA) for three biological replicates per EBV-associated cancer cell lines in triplicate. Briefly, the cancer cells (target cells) were plated at a density of 5000 cells per well in an overall media volume of 200 μL on a 96-well tissue-culture plate (BD Falcon™). The effector AdE1-LMPpoly transfected T cells were freshly thawed in RPMI-1640 with 10% FCS and 120 IU/mL of recombinant IL-2 at 37° C. and […]. Post 24 hrs of plating and incubation at 37° C. and […], the effector T cells were mixed to the target cells at a gradient ratio of effector to target (E:T) of 5:1-100:1. The exact number of T cells (To) used per E:T ratio (ET) was independently used as control alongside PBS treated target cells (Es) and sole media (M0). After 24 hrs of incubation at 37° C. and […], MTS was added to each well (1:100 dilution in media) and was incubated for 1 hour following which the plate was centrifuged at 1,200×g at room temperature for 5 min and absorbance of the mixture at an optical density of 490 nm was measured via a microplate reader. The relative cell viability was calculated using the following formula: […]
To determine the upregulation of MAPK pathway in EBV-associated solid cancers, we first identified the IC50 value of MEK1/2 inhibitors (AZD6244 or selumetanib and trematinib) across nasopharyngeal and gastric cancer cell lines (with drug concertation ranging from 0.1 μM-5 μM). […] In the next set of experiments, we wanted to determine the impact of MEK1/2 inhibition in combination with allogeneic EBV-specific T cells on EBV-associated solid cancers. As such, we treated the respective EBV-associated cell lines (both gastric and nasopharyngeal) individually or in combination with MEK1/2 inhibitors (both selumetanib and trematinib) and EBV-specific T cells.
Similarly, we targeted MYC-dependent cancer intrinsic pathway using JQ1 inhibitor by first determining the IC50 value of the inhibitor across nasopharyngeal and gastric cancer cell lines (with drug concertation ranging from 0.5 μM-10 μM). […] To characterized the impact of JQ1 inhibition in combination with allogeneic EBV-specific T cells on EBV-associated cancer cells, we used IC25 value JQ1 (2.5 μM) alongside an effector to target ratio of 25:1 of the respective HLA matched allogeneic EBV-specific T cells in vitro. […] We also performed phenotypic characterization, using flow cytometry, of SNU719 and C666.1 cells after 16 hours of individual and dual treatment in vitro.

SNU719 and C666.1 cells = assay: Flow cytometry of Ki67 and active Caspase 3 after individual and dual treatment; details: dual treatment with HLA matched T cells vs individual treatment, 16 hours
Procedure: FIG. 11: Impact of dual combination of MEK1/2 inhibitor and HLA matched allogeneic EBV specific T cells. (A) Cell growth curve highlight the rate of cellular proliferation of SNU719 (upper panel) and C666.1 (lower panel) observed in the presence of HLA-matched EBV specific T cells (effector-to-target ratio of 25:1) and selumatinib (1 μM) individually and in combination, measured using Xcellegence. The effect of individual and dual combination on (B) cell proliferation based on Ki67 and (C) cell death based on active Caspase-3 of SNU719 expression (upper panel) and C666.1 (lower panel), performed using flow cytometry. The data are represented as the mean±SD from three independent experiments. P-values were calculated using one-way ANOVA: ns=not significant, *p<0.05, **p<0.01, ***p<0.001 and ****p<0.0001.
FIG. 15: Impact of dual combination of JQ1 inhibitor and HLA matched allogeneic EBV-specific T cells. The cell viability measured by MTS assay highlighting the impact of a HLA-matched EBV specific T cells at the effector-to-target ratio of 25:1 and JQ1 (2.5 μM) in suppressing cellular growth individually and in combination after 48 hrs of incubation with indicated (A) gastric (SNU719, YCCLE1 (upper panel)) and nasopharyngeal cancer cells (C17, C666.1 (lower panel)). (B) Cell growth curve highlight the rate of cellular proliferation of SNU719 (upper panel) and C666.1 (lower panel) observed in the presence of HLA-matched EBV specific T cells (effector-to-target ratio of 25:1) and JQ1 (2.5 μM) individually and in combination, measured using Xcellegence. The effect of individual and dual combination on (C) cell proliferation based on Ki67 and (D) cell death based on active Caspase-3 of SNU719 expression (upper panel) and C666.1 (lower panel), performed using flow cytometry. The data are represented as the mean±SD from three independent experiments. P-values were calculated using one-way ANOVA: ns=not significant, *p<0.05, **p<0.01, ***p<0.001 and ****p<0.0001.
Further, to validate the impact of the combination on the cell proliferation of the EBV-associated cancer cells, we challenged SNU719 and C666.1 cells with individual and dual combination using Xcellegence. […] We also performed phenotypic characterization, using flow cytometry, of SNU719 and C666.1 cells after 16 hours of individual and dual treatment in vitro.
Similarly, we targeted MYC-dependent cancer intrinsic pathway using JQ1 inhibitor by first determining the IC50 value of the inhibitor across nasopharyngeal and gastric cancer cell lines (with drug concertation ranging from 0.5 μM-10 μM). […]

## Cc1sc2c(c1C)C(c1ccc(Cl)cc1)=N[C@@H](CC(=O)OC(C)(C)C)c1nnc(C)n1-2 [JQ1]
SNU719 cells
  cell viability of SNU719: significantly reduced
[1]; EBV-associated nasopharyngeal and gastric cancer cell lines, MTS assay, 48 hours, compared to NPC43 (EBV-)
  IC50: ~2500 nM
[1]
  IC25 value (sub IC50 value): 2500 nM
SNU719 and C666.1 cells
  cell death (Active Caspase 3 staining): significant cell death
  cell proliferation (Ki67+ staining): significant loss of cell proliferation

## Cn1cnc2c(F)c(Nc3ccc(Br)cc3Cl)c(C(=O)NOCCO)cc21 [selumetanib]
SNU719 cells
  cell viability of SNU719: significantly reduced
[1]; 48 h
  IC50: ~2500 nM
[1]
  IC25 value (sub IC50 value): 1000 nM
SNU719 and C666.1 cells
  cell death (Active Caspase 3 staining): significant cell death
  cell proliferation (Ki67+ staining): significant loss of cell proliferation
